Structures can show the parent of a compound that is named as a salt. Where two headings read alike, the source gives them in different places.
Key:
[1] = tested on: NCI-H292 lung cancer cells; test: FDA drug screening, complete media vs cholesterol-free media with simvastatin (TABLE 2); assay type: cell-based, human
[2] = tested on: NCI-H292 lung cancer cells; test: FDA drug screening, complete media vs cholesterol-free media without statin (TABLE 1); assay type: cell-based, human
[3] = complete media vs cholesterol-free media + simvastatin (0.04 μM), >0 enhanced anti-cancer activity, about 0 neutral, <0 antagonist
[4] = NCI-H292 cells, cholesterol-free media without statin, FDA drug library screen
[5] = NCI-H292 cells, complete media, FDA drug library screen
[6] = complete vs cholesterol-free media, >0 enhanced anti-cancer activity, about 0 neutral, <0 antagonist
[7] = NCI-H292 cells, FDA drug library screen, cholesterol-free media with simvastatin 0.04 μM
[8] = NCI-H292 cells, FDA drug library screen, complete media
[9] = complete media minus cholesterol-free media + simvastatin, >0 enhanced anti-cancer activity, about 0 neutral, <0 antagonist
[10] = NCI-H292 cells, cholesterol-free media without statin
[11] = complete vs cholesterol-free media, greater than 0 enhanced anti-cancer activity, about 0 neutral, below 0 antagonists
[12] = Complete minus Cholesterol-free, greater than 0 enhanced anti-cancer activity, about 0 neutral, below 0 antagonist
[13] = NCI-H292 cells, FDA drug library screen, cholesterol-free media without statin
[14] = NCI-H292 cells, cholesterol-free media with simvastatin 0.04 μM, FDA drug library screen (TABLE 2)
[15] = NCI-H292 cells, complete media, FDA drug library screen (TABLE 2)
[16] = complete media minus cholesterol-free media + simvastatin (0.04 μM), >0 enhanced anti-cancer activity, about 0 neutral, <0 antagonist
[17] = NCI-H292 cells, cholesterol-free media with simvastatin 0.04 μM, cell growth value in FDA drug screen
[18] = NCI-H292 cells, complete media, cell growth value in FDA drug screen
[19] = NCI-H292 cells, FDA library drug in cholesterol-free media with simvastatin 0.04 μM
[20] = NCI-H292 cells, FDA library drug in complete media
[21] = Complete minus Cholesterol-free, […]

O=C([O-])CCCc1ccccc1.[Na+] [Sodium 4-phenylbutyrate]
Cholesterol-free media + simvastatin (0.04 μM) ([1]; NCI-H292 cells, drug in cholesterol-free media with simvastatin 0.04 μM): 1.094 | Complete Media ([1]; NCI-H292 cells, drug in complete media): 0.9051 | Difference [1, 3]: −0.19 | Cholesterol-free [2, 4]: 0.7629 | Complete [2, 5]: 1.099 | Difference [2, 6]: 0.34

O=S(=O)(O)Oc1ccc(C(c2ccc(OS(=O)(=O)O)cc2)c2ccccn2)cc1 [Sodium Picosulfate]
Cholesterol-free media + simvastatin (0.04 μM) [1, 7]: 0.987 | Complete Media [1, 8]: 1.164 | Difference [1, 9]: 0.18 | Cholesterol-free [2, 10]: 1.414 | Complete ([2]; NCI-H292 cells, complete media): 1.043 | Difference [2, 11]: −0.37

O=C([O-])c1ccccc1O.[Na+] [Sodium Salicylate]
Cholesterol-free media + simvastatin (0.04 μM) [1]: 1.29 | Complete Media [1]: 1.045 | Difference [1]: −0.24 | Cholesterol-free [2]: 1.153 | Complete [2]: 0.943 | Difference [2]: −0.21

O.O.O=C([O-])CC(O)(CC(=O)[O-])C(=O)[O-].[Na+].[Na+].[Na+] [Sodium citrate (dihydrate)]
Cholesterol-free media + simvastatin (0.04 μM) [1]: 1.04 | Complete Media [1]: 1.108 | Difference [1]: 0.07 | Cholesterol-free [2]: 0.7144 | Complete [2]: 0.9967 | Difference [2]: 0.28

CC(=O)Nc1c(I)c(NC(C)=O)c(I)c(C(=O)[O-])c1I.[Na+] [Sodium diatrizoate]
Cholesterol-free media + simvastatin (0.04 μM) [1, 7]: 0.8717 | Complete Media [1, 8]: 1.037 | Difference [1, 9]: 0.16 | Difference [2, 12]: −0.08 | Cholesterol-free [2, 13]: 1.128 | Complete [2, 8]: 1.045

Cc1cc(S(=O)(=O)O)c2c(C)ccc(C(C)C)cc1-2 [Sodium gualenate]
Cholesterol-free media + simvastatin (0.04 μM) [1, 14]: 0.8796 | Complete Media [1, 15]: 0.8094 | Difference [1, 16]: −0.07 | Difference [2, 12]: −0.12 | Cholesterol-free [2, 13]: 0.9704 | Complete [2, 8]: 0.8542

CC(C)=CCOc1ccc(/C=C/C(=O)c2ccc(OCC=C(C)C)cc2OCC(=O)O)cc1 [Sofalcone]
Cholesterol-free media + simvastatin (0.04 μM) [1, 14]: 0.8486 | Complete Media [1, 15]: 0.7952 | Difference [1, 16]: −0.05 | Difference [2, 12]: −0.07 | Cholesterol-free [2, 13]: 0.9203 | Complete [2, 8]: 0.8453

CC(C)OC(=O)[C@H](C)N[P@](=O)(OC[C@H]1O[C@@H](n2ccc(=O)[nH]c2=O)[C@](C)(F)[C@@H]1O)Oc1ccccc1 [Sofosbuvir]
Cholesterol-free media + simvastatin (0.04 μM) [1, 14]: 0.9955 | Complete Media [1, 15]: 0.9628 | Difference ([1]; complete media minus cholesterol-free media + simvastatin (0.04 μM), […]): −0.03 | Cholesterol-free [2, 10]: 1.138 | Complete ([2]; NCI-H292 cells, complete media): 0.6875 | Difference ([2]; complete vs cholesterol-free media, […]): −0.45

O=C(O[C@H]1CN2CCC1CC2)N1CCc2ccccc2[C@@H]1c1ccccc1 [Solifenacin (hydrochloride)]
Cholesterol-free media + simvastatin (0.04 μM) [1, 17]: 0.865 | Complete Media [1, 18]: 0.978 | Difference [1, 9]: 0.11 | Cholesterol-free [2, 10]: 1.128 | Complete ([2]; NCI-H292 cells, complete media): 0.8222 | Difference [2, 11]: −0.31

O=C(O[C@H]1CN2CCC1CC2)N1CCc2ccccc2[C@@H]1c1ccccc1 [Solifenacin]
Cholesterol-free media + simvastatin (0.04 μM) [1, 19]: 1.222 | Complete Media [1, 20]: 0.9497 | Difference [1, 3]: −0.27 | Difference ([2]; Complete minus Cholesterol-free, >0 enhanced anti-cancer activity, about 0 neutral, <0 antagonist): −0.26 | Cholesterol-free [2, 10]: 1.142 | Complete ([2]; NCI-H292 cells, complete media): 0.8797

NC(=O)OC[C@H](N)Cc1ccccc1 [Solriamfetol (hydrochloride)]
Cholesterol-free media + simvastatin (0.04 μM) [1, 7]: 0.997 | Complete Media [1, 8]: 1.138 | Difference ([1]; complete media minus cholesterol-free media + simvastatin, […]): 0.14 | Difference [2, 21]: −0.02 | Cholesterol-free [2, 4]: 1.017 | Complete [2, 5]: 1

NC(=O)OC[C@H](N)Cc1ccccc1 [Solriamfetol]
Cholesterol-free media + simvastatin (0.04 μM) [1, 19]: 1.23 | Complete Media [1, 20]: 0.8852 | Difference ([1]; complete media vs cholesterol-free media + simvastatin (0.04 μM), […]): −0.34 | Difference [2, 21]: −0.04 | Cholesterol-free [2, 4]: 1.006 | Complete [2, 5]: 0.9654

Cc1c(C(=O)Nc2ccc(N3C[C@@H](C)O[C@@H](C)C3)nc2)cccc1-c1ccc(OC(F)(F)F)cc1 [Sonidegib]
Cholesterol-free media + simvastatin (0.04 μM) [1, 17]: 1.12 | Complete Media [1, 18]: 1.188 | Difference [1, 9]: 0.07 | Cholesterol-free [2, 4]: 0.6523 | Complete [2, 5]: 0.8188 | Difference [2, 6]: 0.17

Reference: patent publication US20250144067A1, “PERSONALIZED STARVATION THERAPY FOR CANCER” (Faeth Therapeutics, Inc., priority 2021, published 2025)
